The values below come from patent publication US9365558B2 (BRISTOL-MYERS SQUIBB COMPANY, priority 2013, dated 2016).

In the assay the target is Human MGAT-2 (Homo sapiens (Human), UniProt Q3SYC2). Description: MGAT LCMS Assay. It counts as biochemical. The conditions noted are these: recombinant MGAT-2 membranes expressed in Sf9 cells; 100 μM 2-oleoylglycerol, 15 μM oleoyl-Coenzyme A; LC/MS of diolein; read-out: h-MGAT LCMS IC50. Here is the method: Assay plates were run through a fully automated robotics system and shaken for 5 seconds every minute for a total 10 minutes. The reactions were then quenched with 120 μL of ice cold methanol containing 1 μg/mL 1,2-distearoyl-rac-glycerol as the internal standard. Plates were shaken for 2 minutes and spun down to remove protein precipitation. After the spin, samples were transferred to LC/MS compatible PCR plates. For LC/MS analysis, a ThermoFisher Surveyor pump, utilizing a Waters Symmetry C8, 50×2.1 mm column, was used for the chromatography of enzyme products. The buffer system consists of 0.1% formic acid in water with a mobile phase consisting 0.1% formic acid in methanol. The shallow gradient is 90-100% mobile phase in 0.2 min with a total run time of 2.3 min. The first 0.5 minutes of each injection was diverted to waste to eliminate the presence of Phosphate buffer in the enzymatic reaction. The column was run at 0.6 mL/min and a temperature of 65° C. Mass spectrometry analysis of the samples was performed on a ThermoFisher Quantum Triple quad utilizing APCI (+) as the mode of ionization. […] The ratio of Diolein to internal standard (Peak Area Ratio) is utilized to calculate IC50 values.
Sequence of Human MGAT-2 (Q3SYC2 whole entry): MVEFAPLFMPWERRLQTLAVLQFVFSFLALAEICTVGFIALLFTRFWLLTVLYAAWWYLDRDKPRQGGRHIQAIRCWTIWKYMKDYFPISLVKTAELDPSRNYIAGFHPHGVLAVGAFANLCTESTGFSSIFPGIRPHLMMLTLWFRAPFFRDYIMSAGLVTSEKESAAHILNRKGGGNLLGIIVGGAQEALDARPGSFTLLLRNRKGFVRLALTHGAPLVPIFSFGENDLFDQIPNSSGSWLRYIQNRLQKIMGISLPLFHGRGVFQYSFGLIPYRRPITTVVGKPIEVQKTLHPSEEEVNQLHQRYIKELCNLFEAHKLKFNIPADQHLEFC
For orientation: IC50 means the concentration at which inhibition is half-maximal. `CC(C)Cn1ccc(C2=C(C(=O)NS(=O)(=O)C3CC3)C(=O)N[C@@](c3ccc(CCCCC(F)(F)F)cc3F)(C(F)(F)F)C2)n1` [Example 54]: the IC50 came to 59 nM.

For `CC(C)Cn1ccc(C2=C(C(=O)NS(=O)(=O)C3CC3)C(=O)N[C@@](c3ccc(OCCCC(F)(F)F)cc3F)(C(F)(F)F)C2)n1` [Example 55], the IC50 came to 62 nM.

For the molecule `O=C1N[C@@](c2ccc(OCCCC(F)(F)F)cc2F)(C(F)(F)F)CC(c2ccn(CC3CC3)n2)=C1C(=O)NS(=O)(=O)C1CC1` [Example 56], the IC50 turned out to be 13 nM.

In the case of `O=C1N[C@@](c2ccc(OCCCC(F)(F)F)cc2F)(C(F)(F)F)CC(c2ccn(CC3CCC3)n2)=C1C(=O)NS(=O)(=O)C1CC1` [Example 57], the IC50 is 37 nM.

`O=C1N[C@@](c2cnn(CCCCCC(F)(F)F)c2)(C(F)(F)F)CC(c2ccc3c(c2)CCCC3)=C1C(=O)NS(=O)(=O)C1CC1` [Example 58]: the IC50 was 13 nM.

In the case of `O=C1N[C@@](c2cnn(CCCCCC(F)(F)F)c2)(C(F)(F)F)CC(c2ccc(C3CC3)s2)=C1C(=O)NS(=O)(=O)C1CC1` [Example 59], the half-maximal inhibitory concentration (IC50) was found to be 4 nM.

In the case of `C[C@@]1(c2ccc(OCCCC(F)(F)F)cc2)CC(c2ccn(CC3CC3)n2)=C(C(=O)NS(=O)(=O)C2CC2)C(=O)N1` [Example 60], the IC50 came to 34 nM.

Consider `Cc1ccc(C2=C(C(=O)NS(N)(=O)=O)C(=O)N[C@@](c3ccc(OCCCC(F)(F)F)cc3)(C(F)(F)F)C2)cc1` [Example 61], for which the IC50 was determined as 45 nM.

Consider `O=C1N[C@@](c2ccc(OCCCCC(F)(F)F)cc2)(C(F)(F)F)CC(c2ccc(C3CC3)s2)=C1C(=O)NS(=O)(=O)C1CC1` [Example 62], for which the IC50 was found to be 8 nM.

For the molecule `O=C1N[C@@](c2ccc(OCCCC(F)(F)F)cc2)(C(F)(F)F)CC(c2ccc(C3CC3)s2)=C1C(=O)NS(=O)(=O)C1CC1` [Example 63], the IC50 came to 5 nM.

With `CS(=O)(=O)NC(=O)C1=C(c2ccc(C3CC3)s2)C[C@](c2ccc(OCCCC(F)(F)F)cc2)(C(F)(F)F)NC1=O` [Example 64], the IC50 stood at 6 nM.

Regarding `CS(=O)(=O)NC(=O)C1=C(c2ccc(C3CC3)s2)C[C@](c2ccc(OCCCC(F)(F)F)cc2F)(C(F)(F)F)NC1=O` [Example 65], the IC50 amounted to 4 nM.

As to `CS(=O)(=O)NC(=O)C1=C(c2ccc3c(c2)CCC3)C[C@](c2ccc(OCCCC(F)(F)F)cc2F)(C(F)(F)F)NC1=O` [Example 66], the IC50 came out at 22 nM.

For `CS(=O)(=O)NC(=O)C1=C(c2ccc(C(F)F)cc2)C[C@](c2ccc(OCCCCCC(F)(F)F)cc2F)(C(F)(F)F)NC1=O` [Example 67], the IC50 was 1 nM.

On to `CS(=O)(=O)NC(=O)C1=C(c2ccc(C3CC3)cc2)C[C@](c2ccc(OCCCCCC(F)(F)F)cc2F)(C(F)(F)F)NC1=O` [Example 68], for which the IC50 was determined as 1 nM.

For `Cc1ccc(C2=C(C(=O)NS(=O)(=O)C3CC3)C(=O)N[C@@](c3ccc(OCCCC(F)(F)F)cc3Cl)(C(F)(F)F)C2)cc1` [Example 69], the IC50 is 9 nM.

As for `O=C1N[C@@](c2ccc(OCCCC(F)(F)F)cc2F)(C(F)(F)F)CC(c2ncc(C3CC3)s2)=C1C(=O)NS(=O)(=O)C1CC1` [Example 70], the IC50 was 2 nM.

As for `CS(=O)(=O)NC(=O)C1=C(c2ccc(C(F)F)cc2)C[C@](c2ccc(OCCCC(F)(F)F)cc2F)(C(F)(F)F)NC1=O` [Example 71], the IC50 was 12 nM.

Take `CC(C)n1ccc(C2=C(C(=O)NS(=O)(=O)C3CC3)C(=O)N[C@@](c3ccc(OCCCCCC(F)(F)F)cc3)(C(F)(F)F)C2)c1` [Example 72]: the IC50 amounted to 4 nM.

Take `O=C1N[C@@](c2ccc(CCCCC(F)(F)F)cc2)(C(F)(F)F)CC(c2ccn(CC3CC3)n2)=C1C(=O)NS(=O)(=O)C1CC1` [Example 73]: the IC50 was 2 nM.

For `O=C1N[C@@](c2ccc(OCCCC(F)(F)F)cc2)(C(F)(F)F)CC(c2ccn(CC3CCC3)n2)=C1C(=O)NS(=O)(=O)C1CC1` [Example 74], the IC50 is 17 nM.

As for `CC(C)n1ccc(C2=C(C(=O)NS(=O)(=O)C3CC3)C(=O)N[C@@](c3ccc(CCCCC(F)(F)F)cc3)(C(F)(F)F)C2)n1` [Example 75], the IC50 came out at 23 nM.

Take `O=C1N[C@@](c2ccc(CCCCC(F)(F)F)cc2)(C(F)(F)F)CC(c2ccn(C3CC3)n2)=C1C(=O)NS(=O)(=O)C1CC1` [Example 76]: the IC50 came to 72 nM.

Regarding `O=C1N[C@@](c2ccc(OCCCC(F)(F)F)cc2)(C(F)(F)F)CC(c2ccn(C3CCC3)n2)=C1C(=O)NS(=O)(=O)C1CC1` [Example 77], the IC50 was found to be 29 nM.

For `O=C1N[C@@](c2ccc(OCCCCCC(F)(F)F)cc2)(C(F)(F)F)CC(c2ccn(C3CC3)n2)=C1C(=O)NS(=O)(=O)C1CC1` [Example 78], the IC50 stood at 25 nM.

For the molecule `O=C1N[C@@](c2ccc(OCCCCCC(F)(F)F)cc2)(C(F)(F)F)CC(c2ccn(CC3CC3)n2)=C1C(=O)NS(=O)(=O)C1CC1` [Example 79], the IC50 was 3 nM.

Regarding `CC(C)Cn1ccc(C2=C(C(=O)NS(=O)(=O)C3CC3)C(=O)N[C@@](c3ccc(OCCCCCC(F)(F)F)cc3)(C(F)(F)F)C2)n1` [Example 81], the IC50 is 43 nM.

`CCc1ccc(C2=C(C(=O)NS(=O)(=O)C3CC3)C(=O)N[C@](C)(c3ccc(OCCCC(F)(F)F)cc3)C2)cc1` [Example 82]: the IC50 amounted to 2 nM.

Consider `CS(=O)(=O)NC(=O)C1=C(c2ccn(C3CC3)n2)C[C@](c2ccc(OCCCCCC(F)(F)F)cc2)(C(F)(F)F)NC1=O` [Example 83], for which the IC50 was determined as 6 nM.

In the case of `CC(C)(C)c1ccc(C2=C(C(=O)NS(C)(=O)=O)C(=O)N[C@](C)(c3ccc(OCCCC(F)(F)F)cc3)C2)cc1` [Example 85], the IC50 is 27 nM.

As to `CS(=O)(=O)NC(=O)C1=C(c2ccn(C3CC3)n2)C[C@](c2ccc(OCCCCCC(F)(F)F)cc2F)(C(F)(F)F)NC1=O` [Example 86], the 50% inhibitory concentration (IC50) amounted to 166 nM.

On to `O=C1N[C@@](c2ccc(OCCCC(F)(F)F)cc2)(C(F)(F)F)CC(c2ccn(C3CC3)n2)=C1C(=O)NS(=O)(=O)C1CC1` [Example 87], for which the IC50 stood at 98 nM.

Consider `O=C1N[C@@](c2ccc(OCCCC(F)(F)F)cc2)(C(F)(F)F)CC(c2ccn(CC3CC3)n2)=C1C(=O)NS(=O)(=O)C1CC1` [Example 88], for which the IC50 stood at 67 nM.

For the molecule `O=C1N[C@@](c2ccc(OCCCCCC(F)(F)F)cc2F)(C(F)(F)F)CC(c2ccn(C3CC3)n2)=C1C(=O)NS(=O)(=O)C1CC1` [Example 89], the IC50 turned out to be 6 nM.

Consider `CS(=O)(=O)NC(=O)C1=C(c2ccn(CC3CCC3)n2)C[C@](c2ccc(OCCCC(F)(F)F)cc2)(C(F)(F)F)NC1=O` [Example 90], for which the IC50 turned out to be 8 nM.

Consider `CS(=O)(=O)NC(=O)C1=C(c2ccn(CC3CC3)n2)C[C@](c2ccc(OCCCC(F)(F)F)cc2)(C(F)(F)F)NC1=O` [Example 91], for which the IC50 stood at 23 nM.

With `Cc1ccc(C2=C(C(=O)NS(=O)(=O)C3CC3)C(=O)N[C@@](c3cnn(CCCCCC(F)(F)F)c3)(C(F)(F)F)C2)cc1` [Example 93], the IC50 came out at 179 nM.

Regarding `O=C1N[C@@](c2cnn(CCCCCCC(F)(F)F)c2)(C(F)(F)F)CC(c2ccc3c(c2)CCCC3)=C1C(=O)NS(=O)(=O)C1CC1` [Example 94], the IC50 was determined as 4 nM.

Take `O=C1N[C@@](c2cnn(CC/C=C/CCC(F)(F)F)c2)(C(F)(F)F)CC(c2ccc3c(c2)CCCC3)=C1C(=O)NS(=O)(=O)C1CC1` [Example 95]: the IC50 came to 88 nM.

Regarding `CCOc1ccc(C2=C(C(=O)NS(=O)(=O)C3CC3)C(=O)N[C@@](c3ccc(OCCCC(F)(F)F)cc3F)(C(F)(F)F)C2)cc1` [Example 96], the IC50 worked out at 7 nM.

On to `CCOc1ccc(C2=C(C(=O)NS(C)(=O)=O)C(=O)N[C@@](c3ccc(OCCCC(F)(F)F)cc3F)(C(F)(F)F)C2)cc1` [Example 97], for which the IC50 is 42 nM.

As for `Cc1ccc(C2=C(C(=O)NS(=O)(=O)C3CC3)C(=O)N[C@@](C3CCCCC3)(C(F)(F)F)C2)cc1` [Example 98], the IC50 was determined as 22 nM.

Take `[2H]C1([2H])C(c2ccc(OC)cc2)=C(C(=O)NS(=O)(=O)C2CC2)C(=O)N[C@@]1(c1ccc(OCCCCCC(F)(F)F)cc1F)C(F)(F)F` [Example 99]: the IC50 was 4 nM.
